# Values of other authors, collected in paper PMC12498288 (Frontiers in Immunology, 2025).
# Test system: SARS-CoV-2
# Parameters: method as in PMID 38319178
# Settings: hospitalized COVID-19 patients with a similar CSS as in RESPIRE; cited from earlier work
structure (smiles),measurement,value
CC(C)C(=O)OC[C@H]1O[C@@H](n2ccc(NO)nc2=O)[C@H](O)[C@@H]1O [molnupiravir],viral load reduction,no viral load reduction was observed
